Assay results published in PubChem BioAssay AID1996.
In brackets after ≈: the same amount, converted by molar mass.

Settings: buffer; pH 7.4; 200.0 µM

solubility kinetic	Structure (SMILES)
> 69.2 µg/mL	C=CCn1c(SCC(=O)Nc2c(C)n(C)n(-c3ccccc3)c2=O)nnc1-c1cccnc1
2.4 µg/mL (≈ 9.74 µM)	Cc1ccc2nc(NC(=O)C3CC3C)sc2c1 (centres undefined)
6 µg/mL (≈ 18.3 µM)	Cc1ncc([N+](=O)[O-])n1CC(=O)Nc1cccc(C(F)(F)F)c1
> 62.2 µg/mL	CC[N+](C)(C)Cc1ccccc1Br.Cc1ccc(S(=O)(=O)[O-])cc1
> 34.1 µg/mL	CCc1nnc(NC(=O)C2CCCO2)s1 (centres undefined)
> 29.1 µg/mL	NC1=NC(=O)/C(=C\c2ccco2)S1
7.2 µg/mL (≈ 20.8 µM)	Cc1ccc2c(c1)C(O)(CC(=O)c1cccc(-n3cccc3)c1)C(=O)N2 (centres undefined)
> 53.5 µg/mL	COCC(=O)N1CCCC(CNS(=O)(=O)c2ccc(OC)cc2)C1 (centres undefined)
> 46.4 µg/mL	COCCNC(=O)/C(C#N)=C/c1ccccc1Br
0.9 µg/mL (≈ 2.93 µM)	O=C(/C=C/c1ccccc1)Nc1nc(-c2ccncc2)cs1
< 0.7 µg/mL	CCOC(=O)c1c(NC(=O)COC(=O)C2CC2C)sc(C)c1C (centres undefined)
27.1 µg/mL (≈ 103 µM)	Cc1cc(C(=O)Nc2sccc2C(N)=O)c(C)o1
38.9 µg/mL (≈ 146 µM)	COCn1c(C(O)c2ccccc2)cc2ccccc21 (centres undefined)
26.3 µg/mL (≈ 83.9 µM)	COc1ccc(Nc2nc(-c3cccnc3)cs2)c(OC)c1
6.7 µg/mL (≈ 24.7 µM)	C=CCC1(N(C(C)=O)c2ccccc2C)CCCCC1
> 54.9 µg/mL	O=C(Nc1ccncc1)c1cc(S(=O)(=O)N2CCCC2)ccc1Cl
> 41.6 µg/mL	CCOC(=O)N1CCN(C(=O)Nc2ccccc2)CC1
17.2 µg/mL (≈ 62.9 µM)	O=C(COC(=O)/C=C/c1ccccc1)NC1CCCC1
> 51.8 µg/mL	CC(=O)Nc1ccc(S(=O)(=O)N(C#N)c2nc(C)cc(C)n2)cc1
4.8 µg/mL (≈ 14.6 µM)	O=c1[nH]c(=S)[nH]c2nc(-c3cccs3)cc(C(F)(F)F)c12
< 0.7 µg/mL	CCOC(=O)c1cc(COc2cc(Cl)cc(Cl)c2)on1
> 50.3 µg/mL	COc1cccc(C(=O)c2c[nH]c(C(=O)NCc3cccnc3)c2)c1
0.9 µg/mL (≈ 2.64 µM)	CCOC(=O)c1sc(=NC(=O)c2c(F)cccc2F)n(C)c1C
16.4 µg/mL (≈ 52.9 µM)	NC(=O)c1cccc(CS(=O)(=O)c2ccc(Cl)cc2)c1

solubility kinetic	Structure (SMILES)
< 0.6 µg/mL	CCOc1ccc(S(=O)(=O)NC2CCCCCC2)cc1
41 µg/mL (≈ 145 µM)	Cc1ccc(S(=O)(=O)NC(C)C(=O)NC2CC2)cc1 (centres undefined)
> 45.8 µg/mL	CNC(=O)COC(=O)COc1ccc2c(C)cc(=O)oc2c1
7.6 µg/mL (≈ 23 µM)	Cc1ccc(-c2nc3ncccc3o2)cc1NC(=O)c1cccnc1
25.5 µg/mL (≈ 116 µM)	c1ccc(SSc2ccccn2)nc1
> 45.4 µg/mL	NCCSc1c(-c2ccc(Cl)cc2)[nH]c2ccccc12
0.3 µg/mL (≈ 0.634 µM)	CC(C)N=c1cc2n(-c3ccc(Cl)cc3)c3ccccc3nc-2cc1Nc1ccc(Cl)cc1
34.8 µg/mL (≈ 144 µM)	N/C(=N\OC(=O)c1ccccc1)c1ccncc1
1.2 µg/mL (≈ 3.48 µM)	Cc1cc(C)c2c(N)c(C(=O)c3ccc(Br)cc3)oc2n1
> 50.9 µg/mL	O=C(C1CC1)N(Cc1nc2ccccc2c(=O)[nH]1)Cc1cccs1
> 50.8 µg/mL	CSCCC(NC(=O)c1ccco1)C(=O)NC1CCC(C)CC1 (centres undefined)
4.2 µg/mL (≈ 15.4 µM)	N#Cc1ccsc1NC(=O)c1cccc([N+](=O)[O-])c1
< 0.3 µg/mL	Cc1c(C)c2ccc(OCC(=O)Nc3ccccn3)cc2oc1=O
> 42.8 µg/mL	O=C(O/N=C1\CCS(=O)(=O)c2sccc21)C1CC1
1.8 µg/mL (≈ 5.5 µM)	CC(CCc1ccccc1)NC(=O)COC(=O)c1ccccc1O (centres undefined)
34.5 µg/mL (≈ 127 µM)	COc1ccccc1CNc1ncnc2sccc12
> 50.6 µg/mL	CCCN1C(=O)CC(=O)N=C1SCC(=O)Nc1ccccc1F
> 45.8 µg/mL	Cc1ccc(OCCC(=O)OCC(=O)NC2CCCC2)cc1
34.9 µg/mL (≈ 103 µM)	COc1cccc(C=O)c1OCCCOc1cccc2cccnc12
38.9 µg/mL (≈ 108 µM)	O=C(c1ccc(Br)cc1)N1CCN(Cc2ccccc2)CC1
< 0.3 µg/mL	O=C(CN1CCN(c2ccccc2)CC1)Nc1scc2c1c(=O)oc1ccccc12
1.3 µg/mL (≈ 3.82 µM)	COc1ccc(NC(=O)c2cc(C)n(Cc3cccs3)c2C)cc1
10.2 µg/mL (≈ 31.9 µM)	CCOc1ccc(NS(=O)(=O)c2cc(C)c(C)cc2C)cc1
> 41.4 µg/mL	O=C(CS(=O)(=O)c1ccccc1)Nc1ccccn1

solubility kinetic	Structure (SMILES)
33 µg/mL (≈ 111 µM)	CCC1CCCCN1CC(=O)c1c(C)[nH]c2cc(C)ccc12 (centres undefined)
14.1 µg/mL (≈ 46.9 µM)	O=[N+]([O-])c1ccc(Oc2cccc3cccnc23)c(Cl)c1
> 48.2 µg/mL	CC(C)N(CC#CC(O)(c1ccccc1)c1ccccc1)C(C)C
> 40.2 µg/mL	Cc1ccc(S(=O)(=O)N2CC(=O)NC(=O)C2)cc1
4.1 µg/mL (≈ 12.7 µM)	CC(=O)c1ccc(NC(=O)Nc2ccc3c(c2)nc(C)n3C)cc1
27.8 µg/mL (≈ 96.8 µM)	Brc1ccccc1Cn1cnc2ccccc21
4.9 µg/mL (≈ 17.1 µM)	O=C(NC1CCSc2ccccc21)c1ccc(F)cc1 (centres undefined)
3.9 µg/mL (≈ 16.6 µM)	COc1ccc(/C=C2\SC(N)=NC2=O)cc1
> 50.6 µg/mL	O=C(O)CC(SCC(=O)NC1CCCc2ccccc21)C(=O)O (centres undefined)
< 0.6 µg/mL	Cc1cccc2c(=O)oc(-c3ccccc3Cl)nc12
34 µg/mL (≈ 102 µM)	COc1ccc(CC(=O)OCC(=O)Nc2cccc(Cl)c2)cc1
44.5 µg/mL (≈ 145 µM)	O=C(c1ccoc1)N1CCCC(Nc2ccc(F)c(F)c2)C1 (centres undefined)
37.7 µg/mL (≈ 139 µM)	CC1CCCCN1C(=O)c1ccc(Br)o1 (centres undefined)
1.6 µg/mL (≈ 4.3 µM)	Cc1cccc(N2CCN(CC(=O)NCc3ccc(Cl)cc3)CC2)c1C
< 0.4 µg/mL	CCC(=O)c1cn(CC(=O)Nc2ccc(C)cc2C)c2ccccc12
39 µg/mL (≈ 130 µM)	S=C(NCC1CCCO1)c1ccc(Br)cc1 (centres undefined)
1.5 µg/mL (≈ 4.09 µM)	CCCCC(C(=O)NC(C)c1ccccc1)C(=O)NC(C)c1ccccc1 (centres undefined)
> 49.7 µg/mL	O=C(NC(=S)N1CCN(c2ccc(O)cc2)CC1)c1ccco1
2.5 µg/mL (≈ 7.64 µM)	Cc1cc(C(=O)COC(=O)c2ccco2)c(C)n1Cc1ccco1
33.8 µg/mL (≈ 149 µM)	O=C(Cc1ccccc1)NCc1cccnc1
43.9 µg/mL (≈ 141 µM)	CCOC(=O)c1c(C)oc2cc(Cl)c(O)c(CN(C)C)c12
> 43.3 µg/mL	COc1ccc(OC)c(NC(=S)Nc2ccccc2)c1
49.5 µg/mL	COc1ccc(OCC(O)CN2CCNCC2)cc1.Cl (centres undefined)
9.9 µg/mL (≈ 30.8 µM)	COc1ccc(/C=C/C(=O)NCCc2nc3ccccc3[nH]2)cc1

solubility kinetic	Structure (SMILES)
31.6 µg/mL (≈ 111 µM)	COc1ccc(C(=O)COc2ccccc2C(N)=O)cc1
> 46.1 µg/mL	O=C(O)C1CCCCN1C(=O)c1cc2c(s1)CCCCC2 (centres undefined)
> 40.6 µg/mL	Cc1ccc2c(C(=O)CN3CCCCC3)c(C)[nH]c2c1
> 44.5 µg/mL	CC(NC(=O)c1cc(F)c(F)cc1Cl)c1ccncc1 (centres undefined)
> 46.4 µg/mL	COc1cc(SC)ccc1C(=O)OCC(=O)N1CCCC1
10.7 µg/mL (≈ 33.3 µM)	CC(=O)Nc1ccc(C(=O)COC(=O)C2CCCCC2)c(F)c1
54.4 µg/mL (≈ 146 µM)	Cc1ccc(C(=O)N2CCN(Cc3ccc4c(c3)OCO4)CC2)c(Cl)c1
> 51.2 µg/mL	Cc1ccc(CNC(=O)CNC(=O)c2ccc(C(C)(C)C)cc2)n1C
> 43.1 µg/mL	O=C(CSc1ncccn1)NC(=O)Cc1ccccc1
43 µg/mL (≈ 138 µM)	CC(C)CCn1cnc2c(oc3nc4c(cc32)CCCC4)c1=O
> 63.2 µg/mL	CCOc1ccccc1/C=C(\C(=O)O)c1ccc(S(=O)(=O)N2CCCCC2)s1
5.7 µg/mL (≈ 19.6 µM)	CC(=O)c1sc(NC(=O)COc2ccccc2)nc1C
9.3 µg/mL (≈ 20.7 µM)	CCN(CCS(=O)(=O)c1ccc(Br)cc1)Cc1nc2ccccc2c(=O)[nH]1
7 µg/mL (≈ 19 µM)	Fc1cccc(/C=C2\CCCC3=C2NC(=S)NC3c2cccc(F)c2)c1 (centres undefined)
8.1 µg/mL (≈ 26.2 µM)	COc1ccccc1C(=O)NCC1(c2ccccc2)CCCC1
> 49.2 µg/mL	CC(=O)N1CC2([N+](=O)[O-])CN(C(C)=O)CC([N+](=O)[O-])(C1)C2(C)C
55.1 µg/mL (≈ 147 µM)	CCCCN1C(=O)C(=O)N(CC(=O)Nc2ccccc2C(=O)OCC)C1=O
< 0.4 µg/mL	COc1ccc2nc(SCC(=O)NC3CCCC3)c(C)cc2c1
38.2 µg/mL (≈ 129 µM)	Cc1cccc(NC(=O)CCn2c(=O)oc3ccccc32)c1
> 47.6 µg/mL	N#CC1=C(S)N(c2ccc(F)cc2)C2(CCCCC2)NC1=O
> 51.7 µg/mL	Cc1noc(C)c1CSCC(=O)Nc1cccc(C(F)(F)F)c1
> 50.6 µg/mL	C[C@H](NC(=O)c1ccccc1)C(=O)N1CCN(c2ccccc2)CC1
1.5 µg/mL (≈ 4.52 µM)	C/C(=N/OC(=O)c1ccccc1Br)c1ccc(C)cc1
> 47.7 µg/mL	O=S(=O)(O)c1cnccc1Nc1cccc(C(F)(F)F)c1

solubility kinetic	Structure (SMILES)
> 38.4 µg/mL	Cc1ccc(-n2c(C)nc3ccsc3c2=O)cc1
> 47.7 µg/mL	CCn1c(=O)cc(N2CCN(C(=O)c3ccco3)CC2)[nH]c1=O
50.6 µg/mL (≈ 107 µM)	O=C(COC(=O)c1ccc(Cl)nc1)Nc1cc(S(=O)(=O)N2CCOCC2)ccc1Cl
19.7 µg/mL (≈ 74 µM)	COc1ccccc1C(=O)c1nc2ccccc2n1C
> 46.4 µg/mL	CC1CN(C(=O)c2cc([N+](=O)[O-])cc([N+](=O)[O-])c2)CC(C)O1 (centres undefined)
> 50.2 µg/mL	O=[N+]([O-])c1ccccc1S(=O)(=O)N(CC1CO1)c1ccccc1 (centres undefined)
> 42.8 µg/mL	O=C1c2ccccc2NC(c2cccc([N+](=O)[O-])c2)N1O (centres undefined)
> 45.2 µg/mL	CC(Oc1ccccc1F)C(=O)NC1CCS(=O)(=O)C1 (centres undefined)
23.5 µg/mL (≈ 66.1 µM)	Cc1ccc(N2CC(C(=O)OCC(=O)c3ccc(F)cc3)CC2=O)cc1 (centres undefined)
42.3 µg/mL (≈ 135 µM)	COc1ccc(NC(=O)N2CCc3ccccc3C2)c(OC)c1
0.6 µg/mL (≈ 1.66 µM)	Cc1cc(C)cc(NC(=O)Nc2cc(S(=O)(=O)N(C)C)ccc2C)c1
1.6 µg/mL (≈ 5.38 µM)	CCc1ccc(C(C)NC(=O)c2ccc3c(c2)OCO3)cc1 (centres undefined)
> 42.5 µg/mL	O=C(CCc1ccccc1)NCc1ccc2c(c1)OCO2
15.7 µg/mL (≈ 51.7 µM)	CCc1cccc(C)c1NC(=O)COC(=O)CC1CCCC1
> 43.4 µg/mL	N#Cc1ccc(OCC(=O)NCCN2CCOCC2)cc1
2 µg/mL (≈ 5.56 µM)	CN(C)c1ccc(S(=O)(=O)N2CCC(Cc3ccccc3)CC2)cn1
> 35.5 µg/mL	O=C(NCc1ccco1)c1ccc(Cl)nc1
> 50.4 µg/mL	CCN1CCN(C(=O)C2CC(=O)N(c3ccc(Cl)cc3)C2)CC1 (centres undefined)
17.1 µg/mL (≈ 55.8 µM)	O=C(Nc1ccccc1NC(=O)c1ccco1)c1ccccc1
31.8 µg/mL (≈ 112 µM)	Cc1cc(-c2ccccc2C(=O)NC2CCCCC2)on1
2.9 µg/mL (≈ 9.24 µM)	O=C(Cc1ccc(Cl)cc1)Nc1ccc2oc(=O)ccc2c1

Structure (SMILES)	solubility kinetic
Cl.NCC(O)c1ccc(O)cc1 (centres undefined)	> 28.4 µg/mL
Cc1cc(N2CCCC2)ccc1C=C(C#N)C#N	0.5 µg/mL (≈ 2.11 µM)
